Test [1] has as its system Alzheimer's mouse model (5×FAD). The test is described as follows: Morris water maze (spatial learning, probe test). The format is in vivo. Conditions: 1 mg/kg twice a week, total 20 times. The procedure:
[Experimental Method: Morris Water maze] An acryl-made platform having a diameter of 10 cm was installed in a circular water tank having a size of diameter×height=150 cm×80 cm and a camera was installed at the center of the water tank on the ceiling where the water tank was placed. Around the water tank, a horizontal cue, a vertical grid cue, and a circular object cue were disposed, respectively. For the experimental preparation, water at about 26° C. was filled in the water tank up to a height of about 1 cm from the top of the platform and a white water paint was dissolved.
At a first experimental day, the mouse was flooded at one position of the prepared water tank and swam for 3 minutes and then induced to move to the platform location by an experimenter's hand after 3 minutes and left for 1 minute on the platform. After 1 minute, the mouse was lifted and covered by both hands and put in a cage again after 1 minute. This process was repeated three times. […] The process was repeated everyday until a difference between mouse groups was decreased. At the final experimental day, the mouse was flooded in the water tank after removing the platform in the water tank and a video for 90 seconds was recorded and then a moving path and the number of platform pass times of the mouse in the water tank, a time latency of the platform location, and the like were analyzed by using analysis software.
After 1 mg/kg of PBS or sodium taurodeoxycholate was injected to a control mouse and an Alzheimer's mouse (4 per group) twice a week and a total of 20 times, a result of evaluation a spatial learning ability through a water maze experiment was illustrated in FIG. 2. It was verified that a time required when the Alzheimer's mouse found the platform was shortened by administrating the sodium taurodeoxycholate drug.
After 1 mg/kg of PBS or sodium taurodeoxycholate was injected to a control mouse and an Alzheimer's mouse (more than 10 per group) twice a week and a total of 20 times, a mouse behavior pattern was tracked in the water tank without the platform. A representative image of the result of tracking the mouse movement in the water tank without the platform was illustrated in FIG. 3.
In the above experiment, the result of measuring the number of times when the mouse crossed the platform location and a time latency at the platform location was illustrated in FIG. 4 and in the sodium taurodeoxycholate administration mouse group, it was verified that the degree of memorizing the platform was high.

Test [2] has as its system Alzheimer's animal model. The test is described as follows: Blood analysis of biochemical components (metabolites). It is filed as in vivo, mouse. Conditions: 1 mg/kg twice per week, total 20 times; FIG. 10. As to the method: (§1) [Experimental Method: Blood analysis] The blood was obtained from the mouse by cardiac blood collection or orbital blood collection. For analyzing the inflammatory substance, the obtained blood was left for 2 hours at room temperature and centrifuged, a supernatant was taken, and each inflammatory substance was quantitatively analyzed by using a kit and equipment for bioplex. In order to analyze biochemical and hematopoietic cells, the obtained blood was put in an appropriate tube or container and applied to a biochemical analyzer and a hematology analyzer, respectively, to obtain data. After 1 mg/kg of PBS or sodium taurodeoxycholate is injected to the control mouse and the Alzheimer's mouse twice per week and a total of 20 times, the blood of the mouse was extracted and then the biochemical components in the blood were analyzed. The result was illustrated in FIG. 10.

Test [3] deals with Alzheimer's animal model (5×FAD). The test is described as follows: TUNEL staining of apoptotic region in brain tissue. The format is in vivo, mouse. Conditions: frontal cortex, FIG. 8. The procedure:
[Experimental Method: Tissue fluorescent staining] A mouse was anesthetized, the limbs were fixed and then the mouse was cut to expose the heart by scissors and tweezers. The upper right atrium was slightly cut by the scissors and punctured, a needle was put in the left ventricle, and PBS was injected and perfused. When the colors of the blood vessel and the organs turned to white, a 4% paraformaldehyde (PFA) solution was replaced and injected until muscle contraction occurred and the soles were hard. […] The cut tissue piece was attached on the slide by using a brush and blocked for preventing a nonspecific antibody binding, and then reacted with a specific antibody (coupled with a fluorescence) to a protein to be reported. […] The photographed image was converted into numeral values by measuring the fluorescent strength for each fluorescence by analysis software.
The brain tissue of the Alzheimer's model mouse administrated with the drug was extracted and a reduction of the lesion such as an apoptotic lesion in the frontal cortex and the hippocampus area was measured by fluorescent-staining, and the result was illustrated in FIG. 8. The PBS or sodium taurodeoxycholate was administrated in the Alzheimer's mouse and a region damaged by apoptosis in the frontal cortex of the administrated mouse was analyzed by TUNEL staining. […]

Test [4] deals with Alzheimer's animal model. Briefly: Blood analysis of inflammatory substances (bioplex). Conditions: 1 mg/kg twice per week, total 20 times; FIG. 9. It is filed as in vivo, mouse. As to the method:
as §1, with “data. FIG. 9 illustrates a result of analyzing an inflammatory substance in the blood by extracting the blood of the mouse after” for “data. After”, “to a” for “to the”, “and an” for “and the”, “20 times.” for “20 times, the blood of the mouse was extracted and then the biochemical components in the blood were analyzed. The result was illustrated in FIG. 10.”

The subject of test [5] is Alzheimer's animal model (5×FAD). The format is in vivo, mouse. Conditions: 1 mg/kg twice a week, total 20 times.
[6] abbreviates: probe test without platform, FIG. 4.

The structures appear in SMILES notation.

`C[C@H](CCC(=O)NCCS(=O)(=O)[O-])[C@H]1CC[C@H]2[C@@H]3CC[C@@H]4C[C@H](O)CC[C@]4(C)[C@H]3C[C@H](O)[C@]12C.[Na+]` [sodium taurodeoxycholate]: in test [1] (setting [6]), the “number of times of crossing the platform location” value is reported as “significantly increased” and the “time latency at the platform location” value was “significantly increased”. Also, the “time required when the Alzheimer's mouse found the platform” value in test [1] (water maze, FIG. 2) is recorded as “shortened”. Further, the “moving pattern to the position of the platform” value in test [1] (water tank without platform, FIG. 3) is recorded as “more actively observed”. Moreover, the “degree of memorizing the platform” value in test [1] (water tank without platform, FIG. 4) was “high”. In addition, in the test on Alzheimer's animal model [2], the “amount of glucose in the blood” value was “decreased”. Further, the “apoptotic region in the brain tissue” value in test [3] is recorded as “reduced”. In the test on Alzheimer's animal model [4], the “amount of CCL3 in the blood” value is “increased”. Moreover, the “expression of iNOS” value in test [5] (frontal cortex area, FIG. 7) is “significantly reduced”. Moreover, in test [5] (frontal cortex, FIGS. 5 and 6), the “cell distribution of astrocyte” value is on record as “significantly reduced”, the “cell distribution of microglia” value is “significantly reduced” and the “formation of the amyloid β plague” value is reported as “significantly reduced”. In addition, the astrocyte cell distribution result in test [5] (hippocampus area, FIGS. 5 and 6) is reported as “significantly reduced”.

These data come from US10071107B2, “Pharmaceutical composition for prevention, treatment or delay of Alzheimer's disease or dementia containing G protein-coupled receptor 19 agent as active ingredient” (SEOUL NATIONAL UNIVERSITY R&DB FOUNDATION, priority 2015, dated 2018).
